Measured values published in ChEMBL document CHEMBL3769353, “Novel indole-based melatonin analogues: Evaluation of antioxidant activity and protective effect against amyloid β-induced damage” (Bioorg Med Chem, 2016).
The source made the active and inactive calls. The rule behind the calls is not given here.

How the values were obtained:
[1] = Cytotoxicity against CHOK1 cells assessed as LDH leakage at 10 uM by spectrophotometric analysis; assay type: cell-based, Cricetulus griseus; settings: chinese hamster, cho-k1, 10 µM
[2] = Cytotoxicity against rat PC12 cells at 100 uM; assay type: cell-based; settings: pc-12, 100 µM
[3] = Antioxidant activity in rat PC12 cells assessed as inhibition of amyloid beta (25 to 35 amino acid residues) induced ROS generation at 50 uM preincubated overnight followed by addition of amyloid beta (25 to 35 amino acid residues) measured after 120 mins by DCFH-DA-based fluorescence assay; assay type: functional; settings: PC-12
PC-12 = test: Neuroprotective activity against amyloid beta (25 to 35 amino acid residues) induced damage in rat PC12 cells assessed as cell viability preincubated for 3 hrs followed by addition of amyloid beta (25 to 35 amino acid residues) for 24 hrs by MTT assay; assay type: functional, cell-based
Erythrocyte [4] = test: Antioxidant activity in human erythrocytes assessed as ROS induced DCFH-DA oxidation at 10 uM by fluorescence analysis in presence of 10 uM of H2O2; assay type: functional, cell-based
Erythrocyte [5] = test: Antioxidant activity in human erythrocytes assessed as ROS induced DCFH-DA oxidation at 100 uM by fluorescence analysis in presence of 10 uM of H2O2; assay type: functional, cell-based

## Fc1ccc(-c2[nH]c3ccccc3c2/C=N/Nc2ccc(Cl)cc2Cl)cc1
[1]
  Activity: Non-toxic
[2]
  Activity: Non-toxic
[3]
  inhibition at 50 µM: 83.8%
PC-12
  IC50: 51.5 µM
Erythrocyte [4]
  Activity: Active
Erythrocyte [5]
  Activity: Active

## Fc1ccc(-c2[nH]c3ccccc3c2/C=N/Nc2cccc(F)c2)cc1
[1]
  Activity: Non-toxic
[2]
  Activity: Non-toxic
[3]
  inhibition at 50 µM: 77.8%
PC-12
  IC50: 54.4 µM
Erythrocyte [4]
  Activity: Active
Erythrocyte [5]
  Activity: Active

## Fc1ccc(-c2[nH]c3ccccc3c2/C=N/Nc2ccc(F)cc2F)cc1
[1]
  Activity: Non-toxic
[2]
  Activity: Non-toxic
[3]
  inhibition at 50 µM: 74.9%
PC-12
  IC50: 50.4 µM
Erythrocyte [4]
  Activity: Active
Erythrocyte [5]
  Activity: Active

## Fc1ccc(-c2[nH]c3ccccc3c2/C=N/Nc2cccc(Br)c2)cc1
[1]
  Activity: Non-toxic
[2]
  Activity: Non-toxic
Erythrocyte [4]
  Activity: Active
Erythrocyte [5]
  Activity: Active

## Fc1ccc(-c2[nH]c3ccccc3c2/C=N/Nc2cc(F)cc(F)c2)cc1
[1]
  Activity: Non-toxic
[2]
  Activity: Non-toxic
[3]
  inhibition at 50 µM: 86.4%
PC-12
  IC50: 34.3 µM
Erythrocyte [4]
  Activity: Active
Erythrocyte [5]
  Activity: Active

## Fc1ccc(-c2[nH]c3ccccc3c2/C=N/Nc2ccc(Cl)cc2)cc1
[1]
  Activity: Non-toxic
[2]
  Activity: Non-toxic
[3]
  inhibition at 50 µM: 49.7%
PC-12
  IC50: 73.9 µM
Erythrocyte [4]
  Activity: Active
Erythrocyte [5]
  Activity: Active

## Fc1ccc(-c2[nH]c3ccccc3c2/C=N/Nc2ccc(Cl)c(Cl)c2)cc1
[1]
  Activity: Non-toxic
[2]
  Activity: Non-toxic
[3]
  inhibition at 50 µM: 71.2%
PC-12
  IC50: 65.7 µM
Erythrocyte [4]
  Activity: Active
Erythrocyte [5]
  Activity: Active

## Fc1ccc(-c2[nH]c3ccccc3c2/C=N/Nc2ccccc2F)cc1
[1]
  Activity: Non-toxic
[2]
  Activity: Non-toxic
[3]
  inhibition at 50 µM: 88.1%
PC-12
  IC50: 64.1 µM
Erythrocyte [4]
  Activity: Active
Erythrocyte [5]
  Activity: Active

## COc1ccc2[nH]cc(CCNC(C)=O)c2c1 [MELATONIN]
[2]
  Activity: Non-toxic
[3]
  inhibition at 50 µM: 49.9%
PC-12
  IC50: > 100 µM

## Fc1ccc(-c2[nH]c3ccccc3c2/C=N/Nc2ccccc2Br)cc1
[1]
  Activity: Non-toxic
[2]
  Activity: Non-toxic
[3]
  inhibition at 50 µM: 95.5%
PC-12
  IC50: 37 µM
Erythrocyte [4]
  Activity: Active
Erythrocyte [5]
  Activity: Active

## Fc1ccc(-c2[nH]c3ccccc3c2/C=N/Nc2cccc(Cl)c2)cc1
[1]
  Activity: Non-toxic
[2]
  Activity: Non-toxic
[3]
  inhibition at 50 µM: 54.6%
PC-12
  IC50: 44 µM
Erythrocyte [4]
  Activity: Active
Erythrocyte [5]
  Activity: Active

## Fc1ccc(N/N=C/c2c(-c3ccc(F)cc3)[nH]c3ccccc23)cc1
[1]
  Activity: Non-toxic
[2]
  Activity: Non-toxic
[3]
  inhibition at 50 µM: 74%
PC-12
  IC50: > 100 µM
Erythrocyte [4]
  Activity: inactive

## COc1ccc(C(=O)N/N=C/c2c(-c3ccc(F)cc3)[nH]c3ccccc23)cc1
[1]
  Activity: Non-toxic
[2]
  Activity: Non-toxic
[3]
  inhibition at 50 µM: 19.2%
PC-12
  IC50: > 100 µM
Erythrocyte [4]
  Activity: inactive

## Fc1ccc(-c2[nH]c3ccccc3c2/C=N/Nc2ccccc2Cl)cc1
[1]
  Activity: Non-toxic
[2]
  Activity: Non-toxic
[3]
  inhibition at 50 µM: 44.1%
PC-12
  IC50: 38.3 µM
Erythrocyte [4]
  Activity: Active
Erythrocyte [5]
  Activity: Active

## Fc1ccc(-c2[nH]c3ccccc3c2/C=N/Nc2cc(Cl)ccc2Cl)cc1
[1]
  Activity: Non-toxic
[2]
  Activity: Non-toxic
[3]
  inhibition at 50 µM: 59.2%
PC-12
  IC50: 39 µM
Erythrocyte [4]
  Activity: Active
Erythrocyte [5]
  Activity: Active
